Experimental data reported in PubChem BioAssay AID330 (DTP/NCI, 2004).
Values joined by “and” are separate entries in the source; they are usually repeats but may differ in a detail not shown here. Identical values can stand only once. Inconclusive results and toxic doses are left out.

System: P388 leukemia ip, CD2F1 mice, survival T/C
Test: NCI In Vivo Anticancer Drug Screen. Data for tumor model P388 Leukemia (intraperitoneal) in CD2F1 (CDF1) mice
Settings: endpoint: median survival time, higher = longer survival
How it was run: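 Mice carrying the transplanted tumor received test compound or vehicle. Survival was recorded in each group, and the value is the treated-group measurement divided by that of the vehicle-treated control group.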

[1] = dose: 60.0 mg/kg/injection, schedule: Q01DX005 (ip), vehicle: saline with Tween-80
[2] = dose: 120.0 mg/kg/injection, schedule: Q01DX005 (ip), vehicle: saline with Tween-80
[3] = dose: 240.0 mg/kg/injection, schedule: Q01DX005 (ip), vehicle: saline with Tween-80
[4] = dose: 50.0 mg/kg/injection, schedule: Q01DX009 (ip), vehicle: saline
[5] = dose: 100.0 mg/kg/injection, schedule: Q01DX009 (ip), vehicle: saline
[6] = dose: 200.0 mg/kg/injection, schedule: Q01DX009 (ip), vehicle: saline
[7] = dose: 50.0 mg/kg/injection, schedule: Q01DX005 (ip), vehicle: Klucel (hydroxypropylcellulose) (HPC)
[8] = dose: 100.0 mg/kg/injection, schedule: Q01DX005 (ip), vehicle: Klucel (hydroxypropylcellulose) (HPC)
[9] = dose: 25.0 mg/kg/injection, schedule: Q01DX005 (ip), vehicle: saline with Tween-80
[10] = dose: 50.0 mg/kg/injection, schedule: Q01DX005 (ip), vehicle: saline with Tween-80
[11] = dose: 100.0 mg/kg/injection, schedule: Q01DX005 (ip), vehicle: saline with Tween-80
[12] = dose: 200.0 mg/kg/injection, schedule: Q01DX005 (ip), vehicle: saline with Tween-80
[13] = dose: 50.0 mg/kg/injection, schedule: Q01DX009 (ip), vehicle: Klucel (hydroxypropylcellulose) (HPC)
[14] = dose: 100.0 mg/kg/injection, schedule: Q01DX009 (ip), vehicle: Klucel (hydroxypropylcellulose) (HPC)
[15] = dose: 100.0 mg/kg/injection, schedule: Q01DX009 (ip), vehicle: saline with Tween-80
[16] = dose: 200.0 mg/kg/injection, schedule: Q01DX009 (ip), vehicle: saline with Tween-80
[17] = dose: 50.0 mg/kg/injection, schedule: Q01DX009 (ip), vehicle: saline with Tween-80

COC(=O)C1c2ccc(OC)c(OC)c2C(=O)N2CCc3cc(OC)c(OC)cc3C12 (configuration not stated)
T/C (dose: 50.0 mg/kg/injection, schedule: Q04DX003 (ip), vehicle: distilled water + Tween-80): 93 % of control
T/C (dose: 100.0 mg/kg/injection, schedule: Q04DX003 (ip), vehicle: distilled water + Tween-80): 96 % of control
T/C (dose: 200.0 mg/kg/injection, schedule: Q04DX003 (ip), vehicle: distilled water + Tween-80): 87 % of control
T/C (dose: 400.0 mg/kg/injection, schedule: Q04DX003 (ip), vehicle: distilled water + Tween-80): 110 % of control

CCN(CC)C(=O)c1cccc2c1OCO2
T/C [1]: 94 % of control
T/C [2]: 98 % of control
T/C [3]: 95 % of control

O=c1cn[nH]c(=O)[nH]1
T/C (dose: 62.5 mg/kg/injection, schedule: Q01DX010 (ip), vehicle: saline): 100 % of control
T/C (dose: 125.0 mg/kg/injection, schedule: Q01DX010 (ip), vehicle: saline): 91 % of control
T/C (dose: 250.0 mg/kg/injection, schedule: Q01DX010 (ip), vehicle: saline): 91 % of control

COC1=C2C[C@@H](C)C[C@@H](OC)[C@@H](O)[C@H](C)/C=C(\C)[C@@H](OC(N)=O)[C@H](OC)/C=C\C=C(/C)C(=O)NC(=CC1=O)C2=O
T/C (dose: 0.75 mg/kg/injection, schedule: Q01DX009 (ip), vehicle: saline with Tween-80): 114 % of control
T/C (dose: 1.5 mg/kg/injection, schedule: Q01DX009 (ip), vehicle: saline with Tween-80): 115 % of control

CN1CN=C(Sc2ccc(Cl)cc2[N+](=O)[O-])NC1
T/C [4]: 89 % of control
T/C [5]: 100 % of control
T/C [6]: 104 % of control

CCOC(=O)c1ncc(OCC)o1
T/C [4]: 91 % of control
T/C [5]: 89 % of control
T/C [6]: 95 % of control

O=C1OC(C(Cl)(Cl)Cl)Nc2ccccc21 (configuration not stated)
T/C [7]: 111 % of control
T/C [8]: 111 % of control

CC1=CC2(C)OC3C(=O)N(c4ccc(Cl)cc4)C(=O)C3C2N=C1 (configuration not stated)
T/C [1]: 104 % of control
T/C [2]: 99 % of control
T/C [3]: 100 % of control

COC(=O)c1c(OC)cc2c(Cl)c3c(c(O)c2c1C)C(=O)[C@@]1(O)C(=O)C=C(OC)[C@H](O)[C@@]1(O)C3=O
T/C (dose: 12.5 mg/kg/injection, schedule: Q01DX005 (ip), vehicle: saline with Tween-80): 104 % of control
T/C [9]: 109 % of control
T/C [10]: 95 % of control
T/C [11]: 104 % of control
T/C [12]: 110 % of control

CCCCCCCCCCN1CCS(=O)(=O)CC1
T/C [13]: 101 % of control
T/C [14]: 100 % of control
T/C (dose: 200.0 mg/kg/injection, schedule: Q01DX009 (ip), vehicle: Klucel (hydroxypropylcellulose) (HPC)): 98 % of control

CSc1cccc(NC(=O)OCCOc2ccc(-c3ccccc3)cc2)c1
T/C [14]: 87 % of control

Cc1ccc(N2CC=C(c3ccccc3)OP2(=O)N2CC2)cc1 (configuration not stated)
T/C [7]: 101 % of control
T/C [8]: 101 % of control
T/C (dose: 200.0 mg/kg/injection, schedule: Q01DX005 (ip), vehicle: Klucel (hydroxypropylcellulose) (HPC)): 94 % of control

O=c1[nH]nc(-c2ccccc2)c2c(/C=C/c3ccccc3)onc12
T/C [1]: 100 % of control
T/C [2]: 98 % of control

O=C1c2ccccc2CCC12OC2c1ccc([N+](=O)[O-])cc1 (configuration not stated)
T/C [9]: 100 % of control
T/C [10]: 106 % of control
T/C [11]: 110 % of control
T/C [12]: 106 % of control

S=P1(Sc2ccccc2)Oc2ccccc2O1
T/C (dose: 12.5 mg/kg/injection, schedule: Q01DX001 (ip), vehicle: saline with Tween-80): 99 % of control
T/C (dose: 25.0 mg/kg/injection, schedule: Q01DX001 (ip), vehicle: saline with Tween-80): 100 % of control
T/C (dose: 50.0 mg/kg/injection, schedule: Q01DX001 (ip), vehicle: saline with Tween-80): 106 % of control
T/C (dose: 100.0 mg/kg/injection, schedule: Q01DX001 (ip), vehicle: saline with Tween-80): 90 % of control

Cc1ccc(N2CC(=O)N3CCCC(C)N3C(=O)C2)cc1 (configuration not stated)
T/C [10]: 99 % of control
T/C [11]: 99 % of control
T/C [12]: 99 % of control

Nc1ncnc2c1ccn2COCCOP(=O)(O)O
T/C (dose: 50.0 mg/kg/injection, schedule: Q01DX005 (ip), vehicle: distilled water + alcohol): 105 % of control
T/C (dose: 100.0 mg/kg/injection, schedule: Q01DX005 (ip), vehicle: distilled water + alcohol): 100 % of control
T/C (dose: 200.0 mg/kg/injection, schedule: Q01DX005 (ip), vehicle: distilled water + alcohol): 98 % of control

O=C(/C=C/c1ccccc1)NC1C=Nc2ccc(Cl)cc2NC1=O (configuration not stated)
T/C [1]: 97 % of control
T/C [2]: 95 % of control
T/C [3]: 97 % of control

COc1ccc(/C=N\NC(=O)C(=O)N/N=C\c2ccc(OC)c(OC)c2)cc1OC
T/C (dose: 12.5 mg/kg/injection, schedule: Q01DX009 (ip), vehicle: Klucel (hydroxypropylcellulose) (HPC)): 93 % of control
T/C (dose: 25.0 mg/kg/injection, schedule: Q01DX009 (ip), vehicle: Klucel (hydroxypropylcellulose) (HPC)): 93 % of control
T/C [13]: 86 % of control and 88 % of control

CCC(=O)Sc1ccccc1C(=O)Nc1ccc(Cl)cc1
T/C [15]: 121 % of control and 86 % of control
T/C [16]: 97 % of control

COc1ccc2nc3cc(Cl)ccc3c(Nc3ccccc3NC(C)=O)c2n1
T/C (dose: 12.5 mg/kg/injection, schedule: Q01DX009 (ip), vehicle: water): 116 % of control
T/C (dose: 25.0 mg/kg/injection, schedule: Q01DX009 (ip), vehicle: water): 116 % of control
T/C (dose: 50.0 mg/kg/injection, schedule: Q01DX009 (ip), vehicle: water): 119 % of control
T/C (dose: 100.0 mg/kg/injection, schedule: Q01DX009 (ip), vehicle: water): 114 % of control
T/C (dose: 200.0 mg/kg/injection, schedule: Q01DX009 (ip), vehicle: water): 115 % of control

O=C(NC(=O)c1ccc(F)c(Cl)c1)NC1CC1
T/C (dose: 60.0 mg/kg/injection, schedule: Q01DX005 (ip), vehicle: Klucel (hydroxypropylcellulose) (HPC)): 100 % of control
T/C (dose: 120.0 mg/kg/injection, schedule: Q01DX005 (ip), vehicle: Klucel (hydroxypropylcellulose) (HPC)): 102 % of control
T/C (dose: 240.0 mg/kg/injection, schedule: Q01DX005 (ip), vehicle: Klucel (hydroxypropylcellulose) (HPC)): 93 % of control

COc1cccc(/C=C/c2ccnnc2)c1OC
T/C [4]: 104 % of control
T/C [5]: 108 % of control
T/C [6]: 100 % of control

ClCC[N+]12CC[N+](CCCl)(CC1)C2.[Cl][Pt]([Cl])([Cl])[Cl]
T/C (dose: 6.25 mg/kg/injection, schedule: Q01DX009 (ip), vehicle: distilled water + Tween-80): 100 % of control
T/C (dose: 25.0 mg/kg/injection, schedule: Q01DX009 (ip), vehicle: distilled water + Tween-80): 169 % of control

CNc1c(NC)n(C)c(=O)n(C)c1=O
T/C [17]: 90 % of control
T/C [4]: 109 % of control
T/C [15]: 105 % of control and 97 % of control
T/C [5]: 109 % of control
T/C [16]: 121 % of control and 97 % of control
T/C [6]: 106 % of control
T/C (dose: 400.0 mg/kg/injection, schedule: Q01DX009 (ip), vehicle: saline with Tween-80): 100 % of control and 112 % of control

[O-]c1nn(C2OC(CO)C(O)C2O)c2cccc[n+]12 (configuration not stated)
T/C (dose: 100.0 mg/kg/injection, schedule: Q01DX001 (ip), vehicle: saline): 110 % of control
T/C (dose: 200.0 mg/kg/injection, schedule: Q01DX001 (ip), vehicle: saline): 108 % of control
T/C (dose: 400.0 mg/kg/injection, schedule: Q01DX001 (ip), vehicle: saline): 95 % of control

O=C(O)c1cc(-n2c(-c3ccccc3)cc3c2CCc2ccccc2-3)ccc1O
T/C [10]: 109 % of control
T/C [11]: 110 % of control

CCCCCCC1(/C=C/c2ccc(Cl)c(Cl)c2)OCC(C)(C)CO1
T/C [17]: 100 % of control
T/C [15]: 89 % of control
T/C [16]: 90 % of control
